From patent US9451775B2, “Heterocyclic compounds as pesticides” (Bayer Intellectual Property GmbH, priority 2008, dated 2016)
Read-outs that look alike come from different tables or passages of the source.

Experiments:
[1] = tested on: green peach aphid (Myzus persicae); test: Myzus test (spray treatment); assay type: in vivo; conditions: foliar, read-out: activity (effect in %, aphids killed)
Description: Myzus Test (Spray Treatment)
• Solvents: 78.0 parts by weight of acetone • 1.5 parts by weight of dimethylformamide • Emulsifier: 0.5 part by weight of alkylaryl polyglycol ether
To produce a suitable preparation of active compound, 1 part by weight of active compound is mixed with the stated amounts of solvents and emulsifier, and the concentrate is diluted with emulsifier-containing water to the desired concentration.
Discs of leaves of Chinese cabbage (Brassica pekinensis) which are heavily infested by all stages of the green peach aphid (Myzus persicae) are sprayed with an active compound preparation of the desired concentration.
After the desired period of time, the effect in % is determined. 100% means that all aphids have been killed; 0% means that none of the aphids have been killed.

[2] = logP determination by HPLC (formic acid method); assay type: physicochemical; conditions: acidic range (pH 3.4), 55° C., read-out: logP (HCOOH)
Description: 1) Description of the method for determining the logP values (formic acid method)
The logP values given in the table were determined in accordance with EEC Directive 79/831 Annex V.A8 by HPLC (High Performance Liquid Chromatography) on a reversed-phase column (C18). Temperature: 55° C.
Mobile phases for the determination in the acidic range (pH 3.4):
Mobile phase A: Acetonitrile+1 ml of formic acid/litre. Mobile phase B: water+0.9 ml of formic acid/litre.
Gradient: from 10% mobile phase A/90% mobile phase B to 95% mobile phase A/5% mobile phase B in 4.25 min.
Calibration was carried out using unbranched alkan-2-ones (having 3 to 16 carbon atoms) with known logP values (determination of the logP values by the retention times using linear interpolation between two successive alkanones). The lambda max values were determined in the maxima of the chromatographic signals using the UV spectra from 200 nm to 400 nm.

[3] = application rate of 500 g/ha, sprayed Chinese cabbage leaf discs
[4] = reversed-phase HPLC column (C18), pH 3.4, HPLC on reversed-phase column (C18)

| SMILES | chromatographic logP [2, 4] | pest or weed control at 500 g/ha [1, 3] | pest or weed control at 500 g/ha ([1]; in Brassica rapa) | chromatographic logP ([2]; HPLC on reversed-phase column (C18)) |
| --- | --- | --- | --- | --- |
| CSc1cnn(-c2sc(-c3cccnc3)nc2C)c1 [compound 33] | 2.21 | ≥ 80% | – | – |
| Cc1nc(-c2cccnc2)sc1-n1ccc([N+](=O)[O-])n1 [compound 35] | 1.92 | ≥ 80% | – | – |
| Cc1nc(-c2cccnc2)sc1-n1ccc(-c2ccccc2F)n1 [compound 36] | 3.33 | ≥ 80% | – | – |
| Cc1nc(-c2cccnc2)sc1-n1ccc(-c2ccccc2C(F)(F)F)n1 [compound 38] | 3.94 | ≥ 80% | – | – |
| Cc1nc(-c2cccnc2)sc1-n1cc(-c2ccccn2)cn1 [compound 39] | 1.55 | ≥ 80% | – | – |
| Cc1nc(-c2cccnc2)sc1-c1ccnc(-c2ncccc2Cl)n1 [compound 41] | 2.03 | ≥ 80% | – | – |
| Cc1nc(-c2cccnc2)sc1-c1cccc(-c2ccccc2Cl)n1 [compound 42] | 3.97 | ≥ 80% | – | – |
| Cc1nc(-c2cccnc2)sc1-c1ccnc(C(F)(F)Cl)n1 [compound 45] | 2.95 | ≥ 80% | – | – |
| Cc1nc(-c2cccnc2)sc1-c1ccnc(-c2cnccn2)n1 [compound 51] | 1.59 | ≥ 80% | – | – |
| Cc1nc(-c2cccnc2)sc1-c1ccnc(-c2ccco2)n1 [compound 52] | 2.35 | ≥ 80% | – | – |
| COC(=O)/C(=N\O)c1nccc(-c2sc(-c3cccnc3)nc2C)n1 [compound 53] | 1.58 | ≥ 80% | – | – |
| CCCc1cccc(-c2nccc(-c3sc(-c4cccnc4)nc3C)n2)n1 [compound 58] | 2.25 | ≥ 80% | – | – |
| Cc1nc(-c2cccnc2)sc1-c1ccnc(C(F)(F)C(F)(F)C(F)(F)F)n1 [compound 60] | – | – | ≥ 80% | 3.84 |
| Cc1nc(-c2cccnc2)sc1-c1nc(C(C)C)no1 [compound 62] | 3.23 | ≥ 80% | – | – |
| Cc1nc(-c2cccnc2)sc1-c1nc(-c2cccnc2)no1 [compound 63] | 2.51 | ≥ 80% | – | – |
| Cc1nc(-c2cccnc2)sc1-c1nc(C(F)(F)F)no1 [compound 64] | 3.34 | ≥ 80% | – | – |
| Cc1nc(-c2cccnc2)sc1-c1ccnc(-n2[nH]c(C(F)(F)F)cc2=O)n1 [compound 66] | 2.9 | ≥ 80% | – | – |
| c1cnc(N2CCOC(c3cnc(-c4cccnc4)s3)=N2)nc1 [compound 67] | 1.9 | ≥ 80% | – | – |
| c1cnc(-c2noc(-c3cnc(-c4cccnc4)s3)n2)nc1 [compound 70] | 1.4 | ≥ 80% | – | – |
| FC(F)(F)c1noc(-c2cnc(-c3cccnc3)s2)n1 [compound 71] | 2.7 | ≥ 80% | – | – |
| Cc1nc(-c2cccnc2)sc1-c1nc(-c2cc3ccccc3cn2)no1 [compound 72] | 3.11 | ≥ 80% | – | – |
| Cc1nc(-c2cccnc2)sc1-c1nc(-c2nc(C)c(C)c(C)n2)no1 [compound 73] | 2.34 | ≥ 80% | – | – |
| Cc1nc(-c2cccnc2)sc1-c1nc(C(F)(F)F)co1 [compound 75] | 2.97 | ≥ 80% | – | – |

Second part, led by results:

| chromatographic logP [2, 4] | SMILES | pest or weed control at 500 g/ha [1, 3] | pest or weed control at 500 g/ha ([1]; in Brassica rapa) | chromatographic logP ([2]; HPLC on reversed-phase column (C18)) |
| --- | --- | --- | --- | --- |
| 2.84 | Cc1nc(-c2cccnc2)sc1-n1ccc(-c2cccs2)n1 [compound 34] | ≥ 80% | – | – |
| 3.81 | Cc1nc(-c2cccnc2)sc1-n1ccc(-c2ccc(Cl)s2)n1 [compound 37] | ≥ 80% | – | – |
| 2.43 | Cc1nc(-c2cccnc2)sc1-n1ccc(-c2ccco2)n1 [compound 40] | ≥ 80% | – | – |
| 1.86 | Cc1nc(-c2cccnc2)sc1-c1cncc(-c2cc(C)n(C)n2)n1 [compound 43] | ≥ 80% | – | – |
| 2.4 | Cc1cc(-c2nccc(-c3sc(-c4cccnc4)nc3C)n2)n(C)n1 [compound 44] | ≥ 80% | – | – |
| 2.47 | Cc1nc(-c2cccnc2)sc1-c1ccnc(-c2cccc(Cl)n2)n1 [compound 46] | ≥ 80% | – | – |
| 1.48 | Cc1cc(=O)n(-c2nccc(-c3sc(-c4cccnc4)nc3C)n2)[nH]1 [compound 47] | ≥ 80% | – | – |
| 2.08 | Cc1nc(-c2cccnc2)sc1-c1ccnc(-c2ncc(F)cc2F)n1 [compound 48] | ≥ 80% | – | – |
| 1.49 | Cc1cccc(-c2nccc(-c3sc(-c4cccnc4)nc3C)n2)n1 [compound 54] | ≥ 80% | – | – |
| 1.49 | Cc1ccc(-c2nccc(-c3sc(-c4cccnc4)nc3C)n2)nc1C [compound 55] | ≥ 80% | – | – |
| 2.08 | Cc1nc(-c2nccc(-c3sc(-c4cccnc4)nc3C)n2)cs1 [compound 56] | ≥ 80% | – | – |
| 1.88 | CCc1cccc(-c2nccc(-c3sc(-c4cccnc4)nc3C)n2)n1 [compound 57] | ≥ 80% | – | – |
| 2.12 | COc1cc(OC)nc(-c2nccc(-c3sc(-c4cccnc4)nc3C)n2)n1 [compound 59] | ≥ 80% | – | – |
| 1.57 | COCc1nccc(-c2sc(-c3cccnc3)nc2C)n1 [compound 61] | ≥ 80% | – | – |
| 1.36 | Cc1cc(C)nc(-c2nccc(-c3sc(-c4cccnc4)nc3C)n2)c1 [compound 65] | ≥ 80% | – | – |
| 1.62 | Cc1nc(-c2cccnc2)sc1-c1cccc(S(C)(=O)=O)n1 [compound 68] | ≥ 80% | – | – |
| 1.2 | Cc1nc(-c2cccnc2)sc1-c1ccnc(Cn2cncn2)n1 [compound 69] | ≥ 80% | – | – |
| 2.81 | COc1cc(OC)nc(-c2noc(-c3sc(-c4cccnc4)nc3C)n2)n1 [compound 74] | ≥ 80% | – | – |
| 3.11 | Cc1nc(-c2cccnc2)sc1-c1ccn(-c2nnc(C(C)C)s2)n1 [compound 76] | ≥ 80% | – | – |
| 2.5 | Cc1nc(-c2cccnc2)sc1-c1ccn(-c2ncccc2[N+](=O)[O-])n1 [compound 77] | ≥ 80% | – | – |
| 2.99 | Cc1nc(-c2cccnc2)sc1-c1ccn(-c2cnc(C(F)(F)F)nc2)n1 [compound 78] | ≥ 80% | – | – |
| 3.94 | CCOc1cc(OCC)nc(-n2ccc(-c3sc(-c4cccnc4)nc3C)n2)n1 [compound 79] | ≥ 80% | – | – |
| 2.27 | Cc1nc(-c2cccnc2)sc1-c1ccn(-c2nnc(C(F)(F)F)n2C)n1 [compound 80] | ≥ 80% | – | – |
| 2.8 | COc1cc(OC)nc(-n2ccc(-c3sc(-c4cccnc4)nc3C)n2)n1 [compound 81] | ≥ 80% | – | – |
| 2.23 | Cc1nc(-c2cccnc2)sc1-c1ccn(-c2cnccc2F)n1 [compound 82] | ≥ 80% | – | – |
| 3.63 | Cc1nc(-c2cccnc2)sc1-c1ccn(-c2nnc(C(C)(C)C)s2)n1 [compound 83] | ≥ 80% | – | – |
| 2.61 | CCc1nnc(-n2ccc(-c3sc(-c4cccnc4)nc3C)n2)s1 [compound 84] | ≥ 80% | – | – |
